Legend:
in vitro = in vitro ADME
Description: (§1) Animal or human whole blood was collected, then the blood was put into a test tube containing anticoagulant, centrifuged at 3500 rpm for 10 min, and the upper layer of pale yellow plasma was collected. • 2), 10 μM of tested compound (m/M/V=C)
(§2) The compound was weighed, the stock solution was prepared with DMSO and the working solution was prepared with 100 mM phosphate buffer. • 3), 10 μM of positive control (1) Propantheline (Propantheline Mr=449.4 Da)
(§3) • 1) 285 μL of plasma and 15 μL of 10 μM compound (tested compound) were added in turn in a 96-well plate, and incubated at 37° C. • 2) 40 μL was taken out at 0, 15, 30, 60, 90, 120 min, respectively, and 160 μL of acetonitrile termination solution containing internal standard was added. • 3) After centrifugation (3500 rpm, 10 min), 50 μL of supernatant was taken out, and then diluted with 50 μL DDH2O and injected to LC-MS/MS.
(§4) • Instrument: Shimadzu LC-20 AD • Chromatographic column: phenomenex Gemiu® C18 (50*4.6 mm, 5 μM particle size); • mobile phase: A: acetonitrile, B: 0.1% formic acid solution […], 2.0-2.1 min: 90% A→5% A; flow rate: 0.8 mL/min; running time: 5.0 min; injection volume: 5 μL.
(§5) • Instrument: API4000 Liquid Chromatography-Mass Spectrometry, AB, USA; • the ion source was electrospray ionization source (ESI); • the temperature of dry gas (N2) was 500° C.; • electrospray voltage was 5500V; • the detection method was positive ion detection; • the scanning mode was selective response monitoring (MRM). • the scanning time was 0.1 s.

[1] = Plasma stability, dog plasma; type: in vitro ADME; details: dog plasma, 37° C.
Description: as §1, §2, §3, §4, §5

[2] = Plasma stability, rat plasma; type: in vitro ADME; details: rat plasma, 37° C.
Description: as §1, §2, §3, §4, §5

[3] = system: human lung cancer NCI-H358 cell xenograft; experiment: In vivo pharmacodynamics on human lung cancer NCI-H358 cell xenograft tumor model; set-up: species or system BALB/c nude mice
Description: • BALB/c nude mice, 6-8 weeks old, female, purchased from Shanghai Xipuer-Bikai Experimental Animal Co., Ltd. 6.3.2 Cell Culture and Cell Suspension Preparation • 1) MiaPaca-2 cells were taken out from the cell bank and resuscitated with DMEM medium (DMEM+10% FBS), the resuscitated cells were placed in a cell culture flask (labeled with cell type, date, name of cultured person, etc.) and cultured in a CO2 incubator (incubator temperature was 37° C., CO2 concentration was 5%) (the method of resuscitating NCI-H358 cells was the same as MiaPaca-2 cells in test embodiment 5, and the culture medium was changed to RPMI-1640 medium). • 2) Passage was conducted every three to five days, and the cells was continued to be cultured in CO2 incubator after passage. The process was repeated until the cell count meets the in vivo pharmacodynamic requirements. • 3) MiaPaca-2 cells were collected and counted by automatic cell counter, according to the counting results, the cells were re-suspended with PBS and Matrigel (ratio was 1:1) to make cell suspension (cell density was 5×10^7/mL), then placed in a ice box for use (NCI-H358 cells were re-suspended with PBS without adding Matrigel, cell density was 1×10^8/mL). 6.3.3 Sample Preparation: • 1) Solvent: solvent (0.5% CMC-Na+1% Tween 80), storage condition: 4° C.
0.5 g of CMC-Na was weighted, dissolved in ddH2O, then 1.0 mL of Tween 80 was added and the mixture was stirred to mix well, and the volume was finally set to 100 mL. • 2) Compound to be tested (10 mg/kg) was prepared:
8.42 mg of AMG510 compound was weighted, 8.260 mL of solvent was added, a uniform solution was obtained by ultrasound, vortexing and stirring.
7.81 mg of embodiment compound 165-1 was weighted, 7.654 mL of solvent was added, a uniform solution was obtained by ultrasound, vortexing and stirring.
• 1) Before inoculation, nude mice were labeled with disposable universal ear tags of rats and mice; • 2) when inoculating, the cell suspension was mixed well, 0.1-1 mL cell suspension was extracted with a 1 mL syringe, bubbles were removed, and then the syringe was put on an ice bag for later use; • 3) the nude mice was held with left hand, the right back of nude mice near the right shoulder (inoculation site) was disinfected with 75% alcohol, and inoculation was started after 30 seconds; • 4) the experimental nude mice were inoculated in turn (each mouse was inoculated with 0.1 mL of cell suspension); 6.3.4 Tumor-Bearing Mouse were Measured, Grouped, and Administered: • 1) According to the tumor growth, the tumor was measured on the 18th day after inoculation, and the tumor size was calculated. tumor volume (mm^3)=length (mm)×width (mm)×width (mm)/2 Tumor volume calculation: • 2) The tumor-bearing mice were grouped according to their body weight and tumor size using a randomized grouping method. • 3) According to the grouping results, the administration of the test drug was started (administration method: oral administration; administration dose: 10 mg/kg; administration volume: 10 mL/kg; administration frequency: once a day; administration period: 21 days; solvents: 0.5% CMC/1% Tween 80). • 4) The tumor was measured and weighed twice a week after the test drug was started to be given. • 5) After the experiment, all animals were euthanized. • 6) Data was processed with software such as Excel. […]

[4] = system: Mia PaCa-2 cells (KRAS G12C mutant cell line); experiment: Inhibition of Mia PaCa-2 cell proliferation (CellTiter-Glo, 72 h); type: cell-based, human; details: Homo sapiens
From the text: (§6) As a preferred embodiment of the present disclosure, the detection method of NCI-H358 cell proliferation inhibitory activity and Mia PaCa-2 cell proliferation inhibitory activity is as follows: through cell culture, adding different concentrations of compound solutions to the cultured cells, continuing the culture for a period of time and measuring the cell proliferation; • further, the method of cell culture is: adjusting the cells to a suitable cell concentration with complete medium and spreading the cell suspension in well plates for culture; preferably, the culture conditions are 37° C., 5% CO2 incubator overnight; preferably, the cell suspension is spread in 96-well plates, 48-well plates, 24-well plates, 12-well plates or 6-well plates, more preferably 96-well plates; preferably, the suitable cell concentration is 1500-4000 cells/well, with 90 μL of cell suspension added to each well; • further, the compound solution is prepared with DMSO and may be further diluted with medium; preferably, the compound solution has a concentration gradient starting from 100 μM at 4-fold dilution, more preferably starting from 30 μM at 4-fold dilution, most preferably starting from 10 μM at 4-fold dilution; • further, the volume of the compound solution or solvent added to each well is 1-10 μL, preferably 10 μL; • further, after adding the compound solution, the conditions for continuing the culture are 37° C., 5% CO2 incubator; preferably, the culture time is 24-72 h, more preferably 72 h; • further, the method for measuring cell proliferation is MTT, CCK8, CellTiter-Glo; preferably the method is CellTiter-Glo; • further, the cell proliferation is read using a microplate reader, more preferably a BioTek Synergy H1 microplate reader.
(§7) When NCI-H358 or Mia PaCa-2 cells were cultured to the appropriate fusion level, the NCI-H358 or Mia PaCa-2 cells were collected, and the cells were adjusted to the appropriate cell concentration using a complete medium, and the cell suspension was spread in a 96-well plate, 90 μL per well, and placed in a 37° C., 5% CO2 incubator overnight; and compound solutions of different concentrations were prepared using DMSO and culture medium; and a solvent control was set, the compound solution was added to a 96-well plate, 10 μL per well, at 37° C. in a 5% CO2 incubator for 72 hours; CellTiter-Glo solution was added thereto and the mixture was mixed well by shaking, incubated for 10 min in the dark, and read by BioTek Synergy H1 microplate reader.
(§8) The luminescence signal values were used to calculate the inhibition rate, the concentration and the inhibition rate were fitted to a nonlinear regression curve using Graphpad Prism software, then the IC50 value was obtained.

in vivo = details: male, Balb/c, mouse, po, 10 mg/kg
Description: 5 g of Hydroxyethyl cellulose (HEC, CMC-Na, viscosity: 800-1200 Cps) was weighed, dissolved in 1000 mL of purified water, and 10 g of Tween 80 was added. The mixture was mixed well to form a clear solution.
The embodiment compounds were weighed and added into 4-mL glass bottles, respectively, 2.4 mL of the solution was added, and ultrasound was performed for 10 minutes to obtain a colorless clear solution with a concentration of 1 mg/mL.
Balb/C mice, males; PO, after overnight fasting, respectively, at a dose of 10 mg/kg, administered in a volume of 10 mL/kg.
Blood samples were collected before administration and 0.083 h, 0.25 h, 0.5 h, 1 h, 2 h, 4 h, 6 h and 8 h after administration, the blood was placed in EDTA-2K tube, centrifuged at 4° C. 6000 rpm for 6 min to separate plasma, and stored at −80° C.; food was consumed 4 hours after drug administration.

[5] = system: NCI-H358 cells (KRAS G12C mutant cell line); experiment: Inhibition of NCI-H358 cell proliferation (CellTiter-Glo, 72 h); type: cell-based, human; details: Homo sapiens
From the text: as §6, §7, §8

human KRAS G12C protein = biological target: T1, human KRAS G12C protein (Homo sapiens, UniProt P01116, G12C); experiment: Thermal shift: melting temperature of KRAS G12C protein; type: binding; details: for Tm (° C.): KRAS G12C protein 5.37 μM with compound 10 μM, 1 hour incubation; for ΔTm at 10 µM: compound 10 μM, Tm minus Tm of DMSO solvent control
T1 construct: purchased Beijing SinoBiological Co., Ltd. 12259-H07E2
Description: A solution containing […] (pH 7.5), 1 mM DTT, 5×SYPRO Orange and 150 mM NaCl was prepared as the experimental buffer, and a final concentration of 5.37 μM human KRAS G12C protein was added thereto. […] After incubating at room temperature in the dark for 1 hour, the PCR tube was put into the PCR instrument, QuantStudio Software v1.3 was opened, and the melting temperature of KRAS G12C protein in different treatment groups was detected by melt curve function (heating from 25° C. to 95° C., 0.03° C./s). The experimental data file of PCR instrument was imported into thermal shift software, and the melting temperature (Tm) of each treatment group was obtained, and the change value of melting temperature (Δ Tm) was obtained by subtracting the Tm of DMSO solvent control group.

| Compound | Residual rate (%) 0 min [1] [%] | Residual rate (%) 15 min [1] [%] | Residual rate (%) 30 min [1] [%] | Residual rate (%) 60 min [1] [%] | Residual rate (%) 120 min [1] [%] | Residual rate (%) 0 min [2] [%] | Residual rate (%) 15 min [2] [%] | Residual rate (%) 30 min [2] [%] | Residual rate (%) 60 min [2] [%] | Residual rate (%) 120 min [2] [%] | IC50 [4] [nM] | IC50 [5] [nM] | Tm (° C.) (human KRAS G12C protein) [°C] | ΔTm at 10 µM (human KRAS G12C protein) [°C] | other results |
| --- | --- | --- | --- | --- | --- | --- | --- | --- | --- | --- | --- | --- | --- | --- | --- |
| C=CC(=O)N1CCN(c2nc(=O)n(-c3c(C)ccnc3C(C)C)c3nc(-c4c(O)cccc4F)c(F)cc23)[C@@H](C)C1 [AMG 510, reference compound] | 100.00 | 98.88 | 101.14 | 93.43 | 91.92 | 100.00 | 100.85 | 93.03 | 77.54 | 56.77 |  |  |  |  | Residual rate (%) 0 min (in vitro; human, 0.5 μM): 100.00%; Residual rate (%) 15 min (in vitro; human, 0.5 μM): 93.77%; Residual rate (%) 30 min (in vitro; human, 0.5 μM): 85.72%; Residual rate (%) 60 min (in vitro; human, 0.5 μM): 82.51%; Residual rate (%) 120 min (in vitro; human, 0.5 μM): 64.44%; Residual rate (%) 0 min (in vitro; mouse plasma, 37° C.): 100.00%; Residual rate (%) 15 min (in vitro; mouse plasma, 37° C.): 97.50%; Residual rate (%) 30 min (in vitro; mouse plasma, 37° C.): 82.58%; Residual rate (%) 60 min (in vitro; mouse plasma, 37° C.): 81.82%; Residual rate (%) 120 min (in vitro; mouse plasma, 37° C.): 63.23% |
| C=CC(=O)N1CCN(c2nc(=O)n(-c3c(C)ccnc3C(C)C)c3nc(-c4c(O)cccc4F)c(F)cc23)[C@@H](C)C1 [AMG-510, reference compound] |  |  |  |  |  |  |  |  |  |  |  |  |  |  | TGI (%) Day 15 ([3]; Day 15, 10 mpk oral once a day): 38.02%; tumor volume (mm^3, Mean ± SD) Day 15 ([3]; Day 15, 10 mpk oral once a day): 324 ± 204 mm^3; ΔT/ΔC(%) Day 15 ([3]; Day 15, 10 mpk oral once a day): 61.98%; tumor volume (mm^3, Mean ± SD) Day 0 ([3]; baseline Day 0, 10 mpk oral once a day): 202 ± 72 mm^3 |
| C=CC(=O)N1C[C@H](C)N(c2nc(=O)n(-c3c(SC)ccnc3C(C)C)c3nc(-c4c(O)cccc4F)c(F)cc23)C[C@H]1C [Embodiment 114, 4-((2S, 5R)-4-acryloyl-2,5-dimethylpiperazin-1-yl)-6-fluoro-7-(2-fluoro-6-hydroxyphenyl)-1-(2-isopropyl-4-(methylthio)pyridin-3-yl) pyrido [2,3-d] pyrimidin-2 (1H)-one] |  |  |  |  |  |  |  |  |  |  | 43 | 50 | 57.2 | 8.5 | AUC(0-inf) (in vivo): 1290 ng·h/mL; Cmax (in vivo): 1530 ng/mL; MRT (in vivo): 42 min; Tmax (in vivo): 15 min; half-life (in vivo): 36 min |
| C=CC(=O)N1C[C@H](C)N(c2nc(=O)n(-c3c(SC)ccnc3C(C)C)c3nc(-c4c(N)ccc(Cl)c4F)c(Cl)cc23)C[C@H]1C [Embodiment 165, 4-((2S, 5R)-4-acryloyl-2,5-dimethylpiperazin-1-yl)-7-(6-amino-3-chloro-2-fluorophenyl)-6-chloro-1-(2-isopropyl-4-(methylthio)pyridin-3-yl) pyrido [2,3-d] pyrimidin-2 (1H)-one] |  |  |  |  |  |  |  |  |  |  | 7.6 | 5.9 | 58.0 | 11 |  |
| CC[C@H](C)C(=O)O[C@H]1C[C@@H](C)C=C2C=C[C@H](C)[C@H](CC[C@@H]3C[C@@H](O)CC(=O)O3)[C@H]21 [Lovastatin, reference compound] | 100.00 | 95.25 | 95.45 | 75.66 | 36.25 | 100.00 | 21.15 | 1.77 | 0.36 | 0.30 |  |  |  |  | t1/2 [1]: 80.22 min; t1/2 [2]: 6.69 min |
